This is an account of results in patent US10959968B2, “Methods for treating c-Met-dependent cancers” (Board of Supervisors of Louisiana State University and …, priority 2016, dated 2021).

Where only a bound is given, the exact number is not on record here.

The subject of data set [1] is MDA-MB-231 human breast cancer cells. The data set can be described thus: Cultrex BME cell invasion assay, HGF-induced. The format is cell-based. The note with it: 24 h treatment. Here is the method: FIG. 6. (A) Effect of HVS on HGF-induced migration of the highly metastatic MDA-MB-231 human breast cancer cells in wound healing assay. […] Vertical bars indicate the percentage of wound closure at 24 h after wounding, calculated relative to the wound distance at zero time±SEM of N=6 in each treatment group. SU11274 and (−)-oleocanthal were used as positive controls at 10 μM. Right panel represents photomicrographs of wound healing assay showing HVS treatment at three different concentrations (1.25, 2.5, and 5 μM) blocked the migration of MDA-MB-231 cells in response to HGF stimulation, as compared to DMSO as a vehicle control. (B) Effect of HVS on HGF-induced cell invasion of the highly aggressive MDA-MB-231 human breast cancer cells using Cultrex® BME cell invasion assay. The cells were treated with different concentrations of HVS for 24 h. Vertical bars indicate the percentage of cells invading the basement membrane at the end of treatment period±SEM of N=3 in each treatment group. (−)-Oleocanthal was used as a positive control at 20 μM dose.*P<0.05 as compared with vehicle-treated control. (C) Effect of HVS on HGF-induced scattering of the DU145 human prostate cancer cells in 2D monolayer cultures, compared to DMSO as vehicle control. Cells were treated with indicated concentrations of HVS for 30 minutes in serum-free media. […]

In data set [2] the test system is non-tumorigenic human MCF10A mammary epithelial cells. The data set can be described thus: Viability of non-tumorigenic mammary epithelial cells. The note with it: similar treatment doses; 24 h. It is filed as cell-based.
Data set [3] relates to MDA-MB-231/GFP human breast cancer cells. The data set can be described thus: Orthotopic breast cancer xenograft in athymic nude mice. The note with it: 10 mg/kg ip, 3×/week; end of study. It is filed as in vivo.
Procedure: Treatment regimens were administered 3×/week, starting 5 days postinoculation. (A) Left panel; tumor volume was evaluated periodically during treatment at the indicated days postinoculation. Tumor volume (V) was calculated by V=(L×W^2)/2, where L was the length and W was the width of tumors. Points, the mean of tumor volume in mm^3 of several tumors (n=5) during the course of the treatment period; bars±SEM. *P<0.05 as compared to vehicle-treated control. Right panel; shown are two mice harboring human breast cancer. […] Error bars indicate SEM for n=5. (C) Left panel; vertical bars indicate mean tumor weight at the end of the experiment.*P<0.05 as compared to the vehicle-treated control. Error bars indicate SEM for n=5.
Breast tumor growth was compared between animals dosed ip with 10 mg/kg of HVS (n=5), 3×/week, starting on the 5th day post-inoculation and continuing for 4 weeks, vs. non-treated animals in a control group (DMSO). Tumor progression was followed by direct measurement of tumor volume starting 14 days after orthotopic cell inoculation.
In the next data set the test system is DU145 spheroids. The data set can be described thus: 3D spheroid growth, IncuCyte. The format is cell-based, human. The note with it: 72 hours. Here is the method:
FIG. 9B: DU145 cells were grown in 10% FBS DMEM. Cells were collected after trypsinization and resuspended in phenol-red free DMEM with 10% FBS. Cells were labeled with Cell-Tracker Red (Life Technologies) for 5 minutes. After labeling cells were washed with PBS and transfer into 96-well Corning 7007 ULA round bottom plates at 1,000 cells/well in 100 μl phenol-red free media with 10% FBS and 5% Matrigel. […] Spheroids were grown at 37° C. and 5% CO2 in IncuCyte ZOOM (Essen Bioscience). Images were acquired every 4 h for a period of 72 h post-treatment and software analysis was design to identify the red object in the well. The data were expressed as fold increase in spheroids size at the end of the treatment using the “average red object area in the well” as determined by the IncuCyte software analysis. FIG. 9C: Visually representative spheroids that are quantitated in FIG. 9B.
To determine the effectiveness of these compounds under 3D growth conditions which more accurately predict effectiveness of new drugs in humans, DU145 spheroids were formed and allowed to grow for 72 hours. Images were recorded every 4 hours using the Incucyte platform. […] Compounds 9 and 10, at 10 micromolar reduced spheroid growth by about 50 percent (not shown).

The subject of data set [4] is DU145 human prostate cancer cells (pMet, pAkt, pErk). The data set can be described thus: Western blot of HGF-induced signaling in prostate cancer cells. It is filed as cell-based. The note with it: 30 min pretreatment, 30 min HGF. As to the method: (§1) FIG. 4. A) Effect of HVS treatment on HGF-induced c-Met activation in human breast cancer cells using Western Blot analysis. Treatment with HVS caused a significant, dose-responsive inhibition of HGF-induced c-Met phosphorylation in MDA-MB-231, MCF-7, and BT-474 mammary tumor cells with no effect on total c-Met levels after treatment for 72 h, as compared to their respective vehicle-treated control groups. The visualization of β-tubulin was used as a loading control. (B) Effect of HVS on HGF-induced c-Met activation and its downstream mitogenic signaling in DU145 human prostate cancer cells, as compared to vehicle-treated control group, using Western Blot analysis. Cells were pre-treated for 30 minutes with either HVS at 0.1, 0.3, 1, and 5 μM or (−)-oleocanthal at 5, 10, and 20 μM doses in serum-free 0.4-media. 33 ng/mL HGF was then added for 30 minutes. Whole cell lysates were collected and assayed by Western Blot. The visualization of α-tubulin was used as a loading control. Representative Western Blots from each experiment are shown, N=3.
DU145 prostate tumor cells were pretreated for 30 minutes with the indicated compounds. Following pretreatment, cells were pulsed for thirty minutes with HGF, cell lysates were prepared and western blot analysis was performed to identify pMet, pAkt, pErk and tubulin.
Background: In western blotting, separated proteins are transferred to a membrane and probed.

In another data set the target is TYRO3 (RSE) (Homo sapiens, UniProt Q06418). The data set can be described thus: SelectScreen Kinase Profiling. The format is biochemical. The note with it: read-out: Mean inhibition at 10 μM of HVS (%).
Data set [5] has as its system c-Met phosphorylation in MDA-MB-231, MCF-7, and BT-474 mammary tumor cells. The data set can be described thus: Western blot of HGF-induced c-Met activation in breast cancer cells. The format is cell-based, human. As to the method: as §1, with “Treatment with HVS caused a significant, dose-responsive inhibition of HGF-induced c-Met phosphorylation in MDA-MB-231, MCF-7, and BT-474 mammary tumor cells with no effect on total c-Met levels after treatment for 72 h, as compared to their respective vehicle-treated control groups.” left out
Activation of c-Met prevents apoptosis and maintains cancer cell survival through activation of PI3K and subsequent Akt-NFκB activation.

Chain of TYRO3 (RSE) (Q06418 41-890): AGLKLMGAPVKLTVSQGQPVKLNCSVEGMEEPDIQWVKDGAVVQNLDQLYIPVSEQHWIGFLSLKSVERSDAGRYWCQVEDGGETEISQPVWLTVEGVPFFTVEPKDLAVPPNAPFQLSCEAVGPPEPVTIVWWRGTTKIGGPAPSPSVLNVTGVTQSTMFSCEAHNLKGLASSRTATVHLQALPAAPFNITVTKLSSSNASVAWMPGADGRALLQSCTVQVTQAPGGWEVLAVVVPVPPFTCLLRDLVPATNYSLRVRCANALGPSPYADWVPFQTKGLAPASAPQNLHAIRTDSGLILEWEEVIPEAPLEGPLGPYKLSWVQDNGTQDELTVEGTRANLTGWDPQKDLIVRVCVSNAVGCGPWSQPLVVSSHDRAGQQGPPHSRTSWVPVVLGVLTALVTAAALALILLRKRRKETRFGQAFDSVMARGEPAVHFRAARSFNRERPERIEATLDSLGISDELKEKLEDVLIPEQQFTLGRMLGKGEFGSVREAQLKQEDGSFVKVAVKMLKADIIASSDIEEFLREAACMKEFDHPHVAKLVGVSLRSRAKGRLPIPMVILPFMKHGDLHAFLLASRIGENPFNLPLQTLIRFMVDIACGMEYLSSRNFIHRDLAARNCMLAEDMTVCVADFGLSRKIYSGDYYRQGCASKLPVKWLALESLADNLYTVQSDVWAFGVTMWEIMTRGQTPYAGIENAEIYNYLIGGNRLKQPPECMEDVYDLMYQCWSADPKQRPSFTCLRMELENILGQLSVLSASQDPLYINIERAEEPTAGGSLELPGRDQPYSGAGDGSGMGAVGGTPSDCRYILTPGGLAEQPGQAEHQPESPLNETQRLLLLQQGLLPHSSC

As for `COc1cc(CCOC(=O)/C=C/c2cc(OC)c(O)c(OC)c2)ccc1O` [Compound 8, (E)-4-hydroxy-3-methoxyph-ethyl 3-(4-hydroxy-3,5-dimethoxyphenyl) acrylate], in data set [1], the HGF-induced invasion entry is recorded as “appears to inhibit”. For the same compound, in data set [2], the “effect on non-tumorigenic human MCF10A cells” value is “no discernable effects”. The “reduction in tumor growth vs vehicle-treated control” value in data set [3] worked out at 92%. Besides, the “reduction of spheroid growth” value with DU145 spheroids (10 micromolar) is given as “over 80%”. Further, in the data set with DU145 spheroids, the “lowest concentration blocking spheroid growth” value was no more than 1 µM. Besides, the “HGF-induced (Met dependent) signaling” value in data set [4] was “effective even at submicromolar concentrations”. Besides, the inhibition (usually how much of the control response was suppressed) at 10 µM on TYRO3 (RSE) was 21%. Besides, the “HGF-induced c-Met phosphorylation” value in data set [5] (72 h treatment) is given as “significant inhibition”. Besides, in data set [5] (at the tested concentrations), the “total c-Met levels” value is reported as “did not affect”.
